In paper PMC8002477, “Bioactive Indole Diketopiperazine Alkaloids from the Marine Endophytic Fungus Aspergillus sp. YJ191021” (Marine Drugs, 2021):
Values after ≈ are worked out from the molar mass of the structure shown. Read-outs that look alike come from different tables or passages of the source.

Assays:
[1] = tested on: Xanthomonas oryzae pv. oryzae; assay: microbe, parasite or virus in culture; assay type: cell-based; settings: 24 h, read-out: MIC, Xe (Xanthomonas oryzae pv. oryzae)
[2] = tested on: Xanthomonas oryzae pv. oryzicola; assay: microbe, parasite or virus in culture; assay type: cell-based; settings: 24 h, read-out: MIC, Xa (Xanthomonas oryzae pv. oryzicola)
[3] = tested on: Rhizoctonia solani; assay: Antimicrobial MIC assay, Rhizoctonia solani; assay type: cell-based; settings: 28 °C, 3-4 days, read-out: MIC, Rs (Rhizoctonia solani)
[4] = tested on: Fusarium oxysporum; assay: Antimicrobial MIC assay, Fusarium oxysporum; assay type: cell-based; settings: 28 °C, 3-4 days, read-out: MIC, Fo (Fusarium oxysporum)
[5] = tested on: Colletotrichum gloeosporioides; assay: Antimicrobial MIC assay, Colletotrichum gloeosporioides; assay type: cell-based; settings: 28 °C, 3-4 days, read-out: MIC, Cg (Colletotrichum gloeosporioides)
[6] = tested on: THP-1 cells; assay: MTT viability of THP-1 cells (safe concentration); settings: concentration range of THP-1 cells viability over 80%, 36 h
[7] = tested on: Propionibacterium acnes (ATCC6919); assay: Antimicrobial assay against P. acnes (to exclude false anti-inflammatory activity); settings: Cutibacterium acnes, ATCC6919, read-out: P. acnes MIC
[8] = tested on: THP-1 cells; settings: human, 36 h
[9] = tested on: Edwardsiella tarda; assay: microbe, parasite or virus in culture; assay type: cell-based; settings: read-out: MIC, Et (Edwardsiella tarda)
[10] = tested on: Vibrio anguillarum; assay: microbe, parasite or virus in culture; assay type: cell-based; settings: read-out: MIC, Va (Vibrio anguillarum)
[11] = tested on: Aeromonas hydrophilia; assay: microbe, parasite or virus in culture; assay type: cell-based; settings: read-out: MIC, Ah (Aeromonas hydrophilia)
[12] = tested on: Vibrio parahaemolyticus; assay: microbe, parasite or virus in culture; assay type: cell-based; settings: read-out: MIC, Vp (Vibrio parahaemolyticus)

| SMILES | MIC [1] | MIC [2] | MIC [4] | MIC [5] | THP-1 Cells SC (safe concentration) [6] | MIC [7] | further results |
| --- | --- | --- | --- | --- | --- | --- | --- |
| CC1(C)C=Cc2c(ccc3c2N(O)C(=O)C32C(O)C34NC(=O)C5(CCCN5C3=O)CC4C2(C)C)O1 (stereo not shown) [Compound 10, notoamide H] | > 100 mg/L | > 100 mg/L | > 100 mg/L | > 100 mg/L | 0 to 50 µM | > 50 µM | MIC [3]: 25 mg/L (≈ 52.1 µM) |
| CC1(C)C=Cc2c(ccc3c2NC(=O)[C@@]32[C@H](O)[C@@]34NC(=O)[C@]5(CCCN5C3=O)C[C@H]4C2(C)C)O1 [Compound 9, sclerotiamide] | > 100 mg/L | > 100 mg/L | > 100 mg/L | > 100 mg/L | 0 to 50 µM | > 50 µM | MIC [3]: 25 mg/L (≈ 53.9 µM) |
| CC1(C)C=Cc2c(ccc3c4c([nH]c23)C(C)(C)[C@@H]2C[C@]35CCCN3C(=O)[C@]2(NC5=O)[C@H]4O)O1 [Compound 12, notoamide R] |  |  |  |  | 0 to 50 µM | > 50 µM |  |
| CC1=C(/C=C/C(C)=C/C=C/C(C)=C/C(=O)O)C(C)(C)CCC1 [Tretinoin, reference compound] |  |  |  |  |  | > 50 µM | THP-1 Cells SC (safe concentration) [8]: 0 to 50 µM |
| CC1(C)C=Cc2c(ccc3c2[N+]([O-])=C2C3=CC34NC(=O)C5(CCCN5C3=O)CC4C2(C)C)O1 (stereo not shown) [Compound 1, Asperthrin A] | 50 mg/L (≈ 112 µM) | 12.5 mg/L (≈ 28.1 µM) | > 100 mg/L | > 100 mg/L | 0 to 5 µM | > 5 µM | MIC [9]: 16 mg/L (≈ 35.9 µM); MIC [10]: 8 mg/L (≈ 18 µM); MIC [11]: 32 mg/L (≈ 71.8 µM); MIC [12]: 16 mg/L (≈ 35.9 µM) |
| CC(=O)N1CCN(c2ccc(OCC3COC(Cn4ccnc4)(c4ccc(Cl)cc4Cl)O3)cc2)CC1 (stereo not shown) [Ketoconazole, ketoconazole, reference compound] |  |  |  |  |  |  | MIC ([3]; agricultural pathogenic fungus): 0.78 mg/L (≈ 1.47 µM); MIC ([4]; agricultural pathogenic fungus): 100 mg/L (≈ 188 µM); MIC ([5]; agricultural pathogenic fungus): 12.5 mg/L (≈ 23.5 µM) |
| CC(=O)OC1C23NC(=O)C4(CCCN4C2=O)CC3C(C)(C)C12C(=O)Nc1c2ccc2c1C=CC(C)(C)O2 (stereo not shown) [Compound 5, Asperthrin E] | > 100 mg/L | > 100 mg/L |  |  | 0 to 40 µM | > 40 µM | MIC ([3]; agricultural pathogenic fungus): 25 mg/L (≈ 49.4 µM); MIC ([4]; agricultural pathogenic fungus): > 100 mg/L; MIC ([5]; agricultural pathogenic fungus): > 100 mg/L |
| O=C(N[C@H](CO)[C@H](O)c1ccc([N+](=O)[O-])cc1)C(Cl)Cl [Chloromycetin, reference compound] | 12.5 mg/L (≈ 38.7 µM) | 12.5 mg/L (≈ 38.7 µM) |  |  |  |  | MIC [9]: 2 mg/L (≈ 6.19 µM); MIC [10]: 0.5 mg/L (≈ 1.55 µM); MIC [11]: 2 mg/L (≈ 6.19 µM); MIC [12]: 2 mg/L (≈ 6.19 µM) |
| CC1(C)C=Cc2c(ccc3c2NC24N5C(=O)C6(O)CCCN6C(=O)C5CC32OC(CO)C4(C)C)O1 (stereo not shown) [Compound 6, Asperthrin F] |  |  |  |  | 0 to 50 µM | > 50 µM |  |
